pIC50: −log10 of the molar value.
Assays:
[1] = biological target: T1, Histone-lysine N-methyltransferase, H3 lysine-79 specific (Homo sapiens, UniProt Q8TEK3); experiment: Inhibition of DOT1L (unknown origin) using chicken nucleosome as substrate in presence of [3H]SAM incubated for 1 hr by TopCount method
Target sequence in this assay (Q8TEK3 whole entry): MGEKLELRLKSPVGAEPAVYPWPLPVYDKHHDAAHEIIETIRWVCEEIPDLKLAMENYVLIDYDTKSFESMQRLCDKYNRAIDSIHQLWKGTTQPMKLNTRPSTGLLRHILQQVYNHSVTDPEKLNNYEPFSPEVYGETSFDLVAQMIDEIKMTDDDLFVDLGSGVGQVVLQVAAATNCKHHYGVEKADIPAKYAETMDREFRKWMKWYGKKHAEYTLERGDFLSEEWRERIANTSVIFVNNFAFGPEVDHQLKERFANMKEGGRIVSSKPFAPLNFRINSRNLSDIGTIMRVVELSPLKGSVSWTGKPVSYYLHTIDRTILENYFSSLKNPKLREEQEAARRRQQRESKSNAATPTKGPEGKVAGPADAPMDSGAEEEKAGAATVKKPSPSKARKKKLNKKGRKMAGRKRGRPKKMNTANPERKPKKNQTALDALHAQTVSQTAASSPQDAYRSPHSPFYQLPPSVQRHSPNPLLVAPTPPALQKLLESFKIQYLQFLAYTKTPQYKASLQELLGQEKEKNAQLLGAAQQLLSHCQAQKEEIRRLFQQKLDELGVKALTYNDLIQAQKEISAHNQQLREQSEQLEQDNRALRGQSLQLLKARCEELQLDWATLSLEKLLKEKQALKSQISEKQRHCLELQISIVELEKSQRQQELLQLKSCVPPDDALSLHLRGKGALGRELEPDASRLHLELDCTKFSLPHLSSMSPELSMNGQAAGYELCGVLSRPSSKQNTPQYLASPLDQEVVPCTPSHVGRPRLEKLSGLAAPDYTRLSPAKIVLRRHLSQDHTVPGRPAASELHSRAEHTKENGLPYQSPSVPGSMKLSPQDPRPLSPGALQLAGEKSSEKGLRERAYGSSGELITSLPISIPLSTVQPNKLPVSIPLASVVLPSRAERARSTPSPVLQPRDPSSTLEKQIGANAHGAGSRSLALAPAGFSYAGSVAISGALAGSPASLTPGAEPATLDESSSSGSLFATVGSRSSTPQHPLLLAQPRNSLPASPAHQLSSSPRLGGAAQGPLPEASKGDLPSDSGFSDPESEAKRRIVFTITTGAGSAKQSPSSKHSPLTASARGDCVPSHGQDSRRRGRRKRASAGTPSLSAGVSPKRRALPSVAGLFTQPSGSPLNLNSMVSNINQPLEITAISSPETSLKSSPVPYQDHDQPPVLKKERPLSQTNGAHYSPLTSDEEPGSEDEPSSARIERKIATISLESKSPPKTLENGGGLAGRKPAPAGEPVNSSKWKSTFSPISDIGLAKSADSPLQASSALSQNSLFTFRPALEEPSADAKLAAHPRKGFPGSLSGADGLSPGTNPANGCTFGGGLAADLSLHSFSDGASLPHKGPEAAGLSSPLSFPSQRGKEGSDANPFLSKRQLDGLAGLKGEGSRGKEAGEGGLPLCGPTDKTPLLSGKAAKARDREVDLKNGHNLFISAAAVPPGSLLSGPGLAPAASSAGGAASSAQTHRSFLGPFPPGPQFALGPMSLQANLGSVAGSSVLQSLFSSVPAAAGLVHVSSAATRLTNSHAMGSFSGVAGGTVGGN

[2] = biological target: T1, Histone-lysine N-methyltransferase, H3 lysine-79 specific; experiment: Inhibition of DOT1L (unknown origin) at 250 uM using chicken nucleosome as substrate in presence of [3H]SAM incubated for 1 hr by TopCount method
Target sequence in this assay (Q8TEK3 whole entry, looked up): as the sequence (Q8TEK3 whole entry) above

[3] = biological target: T2, Histone-lysine N-methyltransferase SETD7 (Homo sapiens, UniProt Q8WTS6); experiment: Inhibition of SETD7 (unknown origin)
T2 sequence (Q8WTS6 whole entry): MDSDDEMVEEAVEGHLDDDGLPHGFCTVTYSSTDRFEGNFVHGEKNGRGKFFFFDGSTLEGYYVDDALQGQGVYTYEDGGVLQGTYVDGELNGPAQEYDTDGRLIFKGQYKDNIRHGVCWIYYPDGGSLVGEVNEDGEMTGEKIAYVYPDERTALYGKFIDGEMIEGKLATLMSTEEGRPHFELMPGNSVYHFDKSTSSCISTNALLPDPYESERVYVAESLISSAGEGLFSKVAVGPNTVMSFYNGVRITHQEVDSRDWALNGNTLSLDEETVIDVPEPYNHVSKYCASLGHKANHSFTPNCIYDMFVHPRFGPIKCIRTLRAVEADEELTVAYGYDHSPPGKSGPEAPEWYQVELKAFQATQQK

[4] = biological target: Protein arginine N-methyltransferase 3 (Homo sapiens, UniProt O60678); experiment: Inhibition of PRMT3 (unknown origin)
Sequence of Protein arginine N-methyltransferase 3 (O60678 whole entry): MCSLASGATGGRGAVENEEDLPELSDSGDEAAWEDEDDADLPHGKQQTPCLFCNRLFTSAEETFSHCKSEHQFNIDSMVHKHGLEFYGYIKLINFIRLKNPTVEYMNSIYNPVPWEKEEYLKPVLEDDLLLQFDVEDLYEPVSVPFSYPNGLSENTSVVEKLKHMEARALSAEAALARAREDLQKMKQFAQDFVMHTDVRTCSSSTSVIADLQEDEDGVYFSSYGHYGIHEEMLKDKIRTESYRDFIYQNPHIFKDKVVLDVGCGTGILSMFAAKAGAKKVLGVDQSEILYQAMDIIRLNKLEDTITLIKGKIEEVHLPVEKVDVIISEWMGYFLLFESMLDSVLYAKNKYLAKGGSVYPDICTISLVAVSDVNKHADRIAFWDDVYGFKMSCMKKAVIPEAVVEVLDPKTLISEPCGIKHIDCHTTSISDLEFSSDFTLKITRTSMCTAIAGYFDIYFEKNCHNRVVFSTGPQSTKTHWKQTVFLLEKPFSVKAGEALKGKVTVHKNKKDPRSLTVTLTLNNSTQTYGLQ

[5] = biological target: Histone-lysine N-methyltransferase SUV39H2 (Homo sapiens, UniProt Q9H5I1); experiment: Inhibition of SUV39H2 (unknown origin)
Sequence of Histone-lysine N-methyltransferase SUV39H2 (Q9H5I1 whole entry): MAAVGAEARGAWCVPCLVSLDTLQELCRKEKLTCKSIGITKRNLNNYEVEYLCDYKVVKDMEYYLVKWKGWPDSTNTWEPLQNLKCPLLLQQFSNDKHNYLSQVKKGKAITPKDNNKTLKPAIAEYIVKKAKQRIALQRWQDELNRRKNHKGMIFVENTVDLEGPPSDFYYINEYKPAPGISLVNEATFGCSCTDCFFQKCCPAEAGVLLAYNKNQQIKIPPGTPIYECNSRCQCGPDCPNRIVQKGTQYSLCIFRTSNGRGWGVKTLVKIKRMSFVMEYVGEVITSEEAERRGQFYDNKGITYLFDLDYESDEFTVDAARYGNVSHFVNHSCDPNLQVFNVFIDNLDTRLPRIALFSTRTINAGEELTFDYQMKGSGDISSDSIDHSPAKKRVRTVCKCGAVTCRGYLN

[6] = biological target: DNA (cytosine-5)-methyltransferase 1 (Homo sapiens, UniProt P26358); experiment: Inhibition of DNMT1 (unknown origin)
Sequence of DNA (cytosine-5)-methyltransferase 1 (P26358 whole entry): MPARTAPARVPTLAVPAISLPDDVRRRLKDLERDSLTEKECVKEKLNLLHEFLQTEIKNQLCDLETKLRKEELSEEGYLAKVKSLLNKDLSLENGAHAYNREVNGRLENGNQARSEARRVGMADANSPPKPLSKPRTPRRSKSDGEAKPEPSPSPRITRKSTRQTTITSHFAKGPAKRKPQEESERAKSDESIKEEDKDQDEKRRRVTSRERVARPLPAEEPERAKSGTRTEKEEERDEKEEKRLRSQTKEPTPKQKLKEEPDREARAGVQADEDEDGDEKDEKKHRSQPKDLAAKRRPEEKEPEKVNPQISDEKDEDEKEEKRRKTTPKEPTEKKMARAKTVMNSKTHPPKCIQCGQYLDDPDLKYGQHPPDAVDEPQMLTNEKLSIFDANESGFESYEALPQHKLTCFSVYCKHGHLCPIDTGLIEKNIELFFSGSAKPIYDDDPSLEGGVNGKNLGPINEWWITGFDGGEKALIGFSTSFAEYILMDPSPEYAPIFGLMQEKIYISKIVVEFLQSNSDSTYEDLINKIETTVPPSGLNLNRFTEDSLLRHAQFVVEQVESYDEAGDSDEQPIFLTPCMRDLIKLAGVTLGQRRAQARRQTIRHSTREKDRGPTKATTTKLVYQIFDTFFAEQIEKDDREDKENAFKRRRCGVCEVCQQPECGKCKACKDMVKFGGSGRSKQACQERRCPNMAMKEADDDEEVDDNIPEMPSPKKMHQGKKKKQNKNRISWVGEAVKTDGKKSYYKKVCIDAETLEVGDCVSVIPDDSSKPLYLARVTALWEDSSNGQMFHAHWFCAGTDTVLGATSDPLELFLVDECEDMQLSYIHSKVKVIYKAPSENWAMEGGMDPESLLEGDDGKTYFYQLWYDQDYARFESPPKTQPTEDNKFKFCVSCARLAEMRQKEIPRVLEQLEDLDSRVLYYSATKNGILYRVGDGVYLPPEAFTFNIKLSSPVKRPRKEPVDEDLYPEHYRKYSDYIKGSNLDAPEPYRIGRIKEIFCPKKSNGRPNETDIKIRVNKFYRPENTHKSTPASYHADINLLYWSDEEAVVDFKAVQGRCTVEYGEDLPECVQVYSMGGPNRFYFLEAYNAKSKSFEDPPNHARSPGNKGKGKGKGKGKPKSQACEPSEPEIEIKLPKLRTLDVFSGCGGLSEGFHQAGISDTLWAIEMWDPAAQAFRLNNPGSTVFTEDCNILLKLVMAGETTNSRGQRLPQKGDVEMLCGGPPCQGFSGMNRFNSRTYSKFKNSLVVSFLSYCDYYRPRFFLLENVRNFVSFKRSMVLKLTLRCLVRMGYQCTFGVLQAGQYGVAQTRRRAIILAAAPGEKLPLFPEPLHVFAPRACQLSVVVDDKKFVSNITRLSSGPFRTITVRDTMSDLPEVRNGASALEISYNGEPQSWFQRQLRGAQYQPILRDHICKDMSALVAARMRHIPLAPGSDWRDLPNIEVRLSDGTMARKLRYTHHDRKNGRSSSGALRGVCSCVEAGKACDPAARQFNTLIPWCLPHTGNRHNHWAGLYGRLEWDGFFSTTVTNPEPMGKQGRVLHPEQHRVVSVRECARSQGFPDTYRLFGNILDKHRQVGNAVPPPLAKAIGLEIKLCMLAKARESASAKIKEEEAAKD

[7] = biological target: Histone-lysine N-methyltransferase EZH2 (Homo sapiens, UniProt Q15910); experiment: Inhibition of EZH2 (unknown origin)
[8] = biological target: T3, Histone-lysine N-methyltransferase EHMT2 (Homo sapiens, UniProt Q96KQ7); experiment: Inhibition of G9a (unknown origin)
T3 sequence (Q96KQ7 whole entry): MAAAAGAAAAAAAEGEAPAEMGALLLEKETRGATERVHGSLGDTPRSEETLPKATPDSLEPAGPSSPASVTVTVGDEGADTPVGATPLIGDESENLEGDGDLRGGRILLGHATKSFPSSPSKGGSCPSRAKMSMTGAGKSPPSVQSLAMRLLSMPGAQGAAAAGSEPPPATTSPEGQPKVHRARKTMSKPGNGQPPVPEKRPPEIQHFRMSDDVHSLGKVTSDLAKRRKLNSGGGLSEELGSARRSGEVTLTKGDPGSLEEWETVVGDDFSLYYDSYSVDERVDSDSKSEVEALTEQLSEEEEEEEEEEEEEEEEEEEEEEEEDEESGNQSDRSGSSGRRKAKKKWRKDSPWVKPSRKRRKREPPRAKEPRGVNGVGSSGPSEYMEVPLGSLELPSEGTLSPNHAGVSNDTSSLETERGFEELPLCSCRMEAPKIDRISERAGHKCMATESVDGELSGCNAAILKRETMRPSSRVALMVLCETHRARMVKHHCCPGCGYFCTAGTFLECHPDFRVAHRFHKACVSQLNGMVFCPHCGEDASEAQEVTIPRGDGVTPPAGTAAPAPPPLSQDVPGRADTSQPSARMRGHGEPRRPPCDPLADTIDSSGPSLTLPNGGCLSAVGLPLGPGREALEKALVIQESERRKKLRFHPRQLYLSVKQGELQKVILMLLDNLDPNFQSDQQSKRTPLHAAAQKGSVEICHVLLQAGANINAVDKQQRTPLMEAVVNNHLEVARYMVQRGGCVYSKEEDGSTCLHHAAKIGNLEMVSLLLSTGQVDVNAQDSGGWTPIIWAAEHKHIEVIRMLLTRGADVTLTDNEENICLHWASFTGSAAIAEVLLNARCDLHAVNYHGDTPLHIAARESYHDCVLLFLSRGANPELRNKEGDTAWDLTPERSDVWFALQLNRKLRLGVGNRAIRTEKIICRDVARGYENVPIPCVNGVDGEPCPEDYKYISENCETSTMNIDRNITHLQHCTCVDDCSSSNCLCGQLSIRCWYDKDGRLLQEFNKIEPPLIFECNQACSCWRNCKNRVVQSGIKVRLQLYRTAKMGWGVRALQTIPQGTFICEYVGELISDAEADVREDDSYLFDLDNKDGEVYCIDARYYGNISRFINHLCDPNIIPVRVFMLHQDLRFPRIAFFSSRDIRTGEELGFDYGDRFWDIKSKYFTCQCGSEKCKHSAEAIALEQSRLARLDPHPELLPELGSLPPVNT

[9] = biological target: Protein arginine N-methyltransferase 5 (Homo sapiens, UniProt O14744); experiment: Inhibition of PRMT5 (unknown origin)
Sequence of Protein arginine N-methyltransferase 5 (O14744 whole entry): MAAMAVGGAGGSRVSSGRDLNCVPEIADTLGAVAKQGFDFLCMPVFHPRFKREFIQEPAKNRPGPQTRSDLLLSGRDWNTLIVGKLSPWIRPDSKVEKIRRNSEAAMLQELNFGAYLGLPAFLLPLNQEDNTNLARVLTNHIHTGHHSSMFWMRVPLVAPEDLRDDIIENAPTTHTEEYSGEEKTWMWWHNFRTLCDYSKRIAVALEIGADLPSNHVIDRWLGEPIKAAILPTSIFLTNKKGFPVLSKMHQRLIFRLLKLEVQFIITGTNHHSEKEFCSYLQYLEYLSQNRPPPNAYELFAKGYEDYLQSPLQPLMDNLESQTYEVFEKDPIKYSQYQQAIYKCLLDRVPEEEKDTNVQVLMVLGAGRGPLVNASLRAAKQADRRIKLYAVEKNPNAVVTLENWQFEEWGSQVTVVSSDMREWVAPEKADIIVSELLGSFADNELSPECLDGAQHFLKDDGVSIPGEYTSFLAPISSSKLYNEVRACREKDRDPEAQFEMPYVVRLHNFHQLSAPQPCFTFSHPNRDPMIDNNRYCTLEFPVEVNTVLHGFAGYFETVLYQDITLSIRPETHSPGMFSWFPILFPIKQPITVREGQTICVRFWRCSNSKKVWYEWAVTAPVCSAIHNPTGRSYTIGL

`N#Cc1c(Br)n([C@@H]2O[C@H](CO)[C@@H](O)[C@H]2O)c2ncnc(N)c12` gave a pIC50 [1] of 3.70.
`C#Cc1cn([C@@H]2O[C@H](CO)[C@@H](O)[C@H]2O)c2ncnc(N)c12` was tested, and the pIC50 [1] was 4.39.
`Nc1ncnc2c1c(F)cn2[C@@H]1O[C@H](CO)[C@@H](O)[C@H]1O` gave a pIC50 [1] of 3.70.
`COc1ccc(Cc2cn([C@@H]3O[C@H](CO)[C@@H](O)[C@H]3O)c3ncnc(N)c23)cc1` showed an inhibition [2] of 42%.
In the case of `Nc1ncnc2c1ncn2[C@@H]1O[C@H](CSCC[C@H](N)C(=O)O)[C@@H](O)[C@H]1O` [S-ADENOSYLHOMOCYSTEINE], the pIC50 ([3]; read-out: IC50) was 4.33, the pIC50 [4] was 5.70 and the pIC50 ([5]; read-out: IC50) was 4.66.
Compound `NC(=O)c1cn([C@@H]2O[C@H](CO)[C@@H](O)[C@H]2O)c2ncnc(N)c12` [SANGIVAMYCIN] has a pIC50 [1] of 4.59.
Compound `Nc1ncnc2c1c(-c1ncco1)cn2[C@@H]1O[C@H](CO)[C@@H](O)[C@H]1O` has a pIC50 [1] of 4.37.
`Nc1ncnc2c1c(I)nn2[C@@H]1O[C@H](CO)[C@@H](O)[C@H]1O` gave a pIC50 [1] of 4.66.
Work on `N#Cc1cn([C@@H]2O[C@H](CO)[C@@H](O)[C@H]2O)c2ncnc(N)c12` [TOYOCAMYCIN] yielded a pIC50 [1] of 4.36.
With `N#Cc1cn([C@@H]2O[C@H](CSCC[C@H](N)C(=O)O)[C@@H](O)[C@H]2O)c2ncnc(N)c12` the IC50 [3] was “Not Active”, the pIC50 [4] was 6.06 and the pIC50 [6] was 6.82. The IC50 [7] was “Not Active”, the pIC50 [8] was 4.00 and the IC50 [5] was “Not Active”. It also gave a pIC50 [9] of 5.62.

Reference: ChEMBL document CHEMBL4477246, “New small molecule inhibitors of histone methyl transferase DOT1L with a nitrile as a non-traditional replacement for heavy halogen atoms” (Bioorg Med Chem Lett, 2016)
